Measured values: patent US20260021092A1, “STRUCTURE-BASED DESIGN OF A NOVEL CLASS OF DRUGS FOR NEURODEGENERATIVE DISEASE” (The Regents of the University of California, priority 2022, published 2026)

Columns and labels:
biosensor cells = test: Toxicity to biosensor cells under seeding assay conditions; assay type: cell-based; conditions: under the assayed conditions
α-synuclein fibrils = α-synuclein fibrils (Homo sapiens, UniProt P37840); test: Table A function: disaggregators of amyloid fibrils (alpha-synuclein)
tau fibrils = tau fibrils (Homo sapiens, UniProt P10636); test: Table A function: disaggregators of amyloid fibrils (tau)
Chain of tau fibrils (P10636 1-441 isoform P10636-8): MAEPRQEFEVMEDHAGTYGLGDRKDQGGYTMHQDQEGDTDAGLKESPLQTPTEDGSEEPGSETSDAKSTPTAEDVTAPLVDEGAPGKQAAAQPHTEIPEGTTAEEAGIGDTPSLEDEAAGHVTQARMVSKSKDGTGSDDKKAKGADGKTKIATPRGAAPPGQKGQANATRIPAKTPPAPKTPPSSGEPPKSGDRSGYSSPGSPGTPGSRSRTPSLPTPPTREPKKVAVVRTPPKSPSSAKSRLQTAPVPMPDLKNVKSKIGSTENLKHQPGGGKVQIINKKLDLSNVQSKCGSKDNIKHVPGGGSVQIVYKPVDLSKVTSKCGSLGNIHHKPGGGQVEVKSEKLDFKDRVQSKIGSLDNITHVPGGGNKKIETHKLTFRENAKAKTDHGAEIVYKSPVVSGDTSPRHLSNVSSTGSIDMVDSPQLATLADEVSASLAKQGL

| Compound | Function (tau fibrils) | other results |
| --- | --- | --- |
| Oc1cccc(-c2c3nc(c(-c4cccc(O)c4)c4ccc([nH]4)c(-c4cccc(O)c4)c4nc(c(-c5cccc(O)c5)c5ccc2[nH]5)CC4)C=C3)c1 [FDA-A4, Temoporfin] | – | toxicity to biosensor cells (biosensor cells): toxic |
| Cc1cc(NC(=O)Cc2ccccc2Cl)ccc1Br [MOL06, N-(4-bromo-3-methylphenyl)-2-(2-chlorophenyl)acetamide] | – | Function (α-synuclein fibrils): Dissociate α- synuclein fibrils |
| O=C1C(Cl)=C(Nc2ccc(Cl)cc2)C(=O)c2ccccc21 [MOL18, 2-chloro-3-[(4-chlorophenyl)amino]naphthalene-1,4-dione] | Dissociate tau fibrils | – |
| COc1cccc2cc(C(=O)Nc3cccc(-c4cn5ccccc5n4)c3)c(=O)oc12 [compound 1541, N-(3-(imidazo[1,2-a]pyridin-2-yl)phenyl)-8-methoxy-2-oxo-2H-chromene-3-carboxamide] | Dissociate tau fibrils | – |
